Experiments:
Cal27 tumours = test: Cal27 head and neck xenograft model; assay type: in vivo, nude mice; settings: 20 mg kg^−1 once-weekly s.c.
Procedure: In the orthotopic Hep3b2.1-7 human liver cancer model, treatment of mice (n=10) began 14 days after inoculation of 2.5 × 10^6 cells. […] To initiate tumour xenografts, MDA-MB-231, PC3, Cal27 and HepG2 cells were injected s.c. into nude mice (n=8) at 4, 5, 2 and 2 × 10^7 cells ml^−1, respectively. […] In the B16F0 lung metastasis model, 2 × 10^5 cells were injected via the tail vein of C57Bl6 mice (n=8). […] Surface lung macrometastases were counted for each group (n=9) upon study termination. In the intrasplenic HT-29 xenograft model, 1 × 10^6 cells in 100 μl were injected into the spleen. […] Solid tumours were measured in two dimensions (length and width) and the tumour volume (cm^3) was calculated using the equation: V=length × width^2 × π/6. The anti-tumour activity was expressed as percent tumour growth inhibition (%TGI). Further details are available in Supplementary Methods. […]
antibody. […]
staining. For quantification, three independent visual fields (20x magnification) were chosen and positive stained spots or vessels with identifiable lumen were counted.
Angiogenesis inhibition and induction were calculated using the equations: […]
regimen both before and after tumour cell inoculation (days -6, -3, 0, +3, +6) or only after tumour cell inoculation (days 0, +3, +6). B16 cell (2x105) were inoculated via tail vein injections and mice were culled and assessed for lung metastases on day 12. […]

[1] = plasma pharmacokinetics of PG545 (LC-MS/MS) in LL/2 tumour-bearing mice; assay type: in vivo; settings: for AUC0−t / Cmax / Tmax / t½: plasma
Procedure: (Applied Biosystems) preceded by a Spark Symbiosis Direct On-line Solid Phase Extraction system. Briefly, using a deep-well 96-well plate, 100 µL plasma was mixed with 10 µL standard solution (or water for unknowns) plus 10 µL internal standard solution (PG562 at 100 µg/mL (deionised water for double blank)).This was then mixed for at least 1 min (Ratek Platform Shaker) and incubated at room temperature for 20 mins prior to addition of 25 µL SDS solution (10 mg SDS in 1 mL deionised water) + 75 µL CHAPS solution (50 mg CHAPS in 1 mL deionised water) and 50 µL Proteinase K solution (10 mg Proteinase K in 1 mL 5 mM CaCl2). Following a mixing step this was incubated at 37°C for 2.5 hours prior to addition of 250 µL deionised water and placed into the Spark Symbiosis system.
The Tmax and Cmax on each sampling day were determined for each dose level by visual inspection of the mean data. The AUC0-t was calculated using the trapezoidal method and the plasma concentration t½ was estimated based on linear regression of the natural log of the plasma concentration that constituted the terminal phase of the concentration-time

heparanase = target: heparanase; set-up: method as in Dredge et al, 2010; settings: ref Dredge et al, 2010; read-out: Ki (heparanase inhibitor); cited from earlier work

CC(C)CCC[C@@H](C)[C@H]1CCC2C3CCC4C[C@@H](O[C@@H]5O[C@H](COS(=O)(=O)[O-])[C@@H](O[C@H]6O[C@H](COS(=O)(=O)[O-])[C@@H](O[C@H]7O[C@H](COS(=O)(=O)[O-])[C@@H](O[C@H]8O[C@H](COS(=O)(=O)[O-])[C@@H](OS(=O)(=O)[O-])[C@H](OS(=O)(=O)[O-])[C@H]8OS(=O)(=O)[O-])[C@H](OS(=O)(=O)[O-])[C@H]7OS(=O)(=O)[O-])[C@H](OS(=O)(=O)[O-])[C@H]6OS(=O)(=O)[O-])[C@H](OS(=O)(=O)[O-])[C@H]5OS(=O)(=O)[O-])CC[C@]4(C)C3CC[C@@]21C.[Na+].[Na+].[Na+].[Na+].[Na+].[Na+].[Na+].[Na+].[Na+].[Na+].[Na+].[Na+].[Na+] (stereo partly drawn) [PG545]
TGI (Cal27 tumours): 57% | start of efficacious plasma concentration range ([1]; LL/2 model): ~20 µg/mL | AUC0−t ([1]; week 1, 20 mg kg^−1): 687 µg·h/mL | Cmax ([1]; week 1, 20 mg kg^−1): 23 µg/mL | Tmax ([1]; week 1, 20 mg kg^−1): 5 h | t½ ([1]; week 1, 20 mg kg^−1): 38 h | AUC0−t ([1]; week 1, 40 mg kg^−1): 1713 µg·h/mL | Cmax ([1]; week 1, 40 mg kg^−1): 55 µg/mL | Tmax ([1]; week 1, 40 mg kg^−1): 3 h | t½ ([1]; week 1, 40 mg kg^−1): 32 h | AUC0−t ([1]; week 1, 60 mg kg^−1): 2666 µg·h/mL | Cmax ([1]; week 1, 60 mg kg^−1): 79 µg/mL | Tmax ([1]; week 1, 60 mg kg^−1): 5 h | t½ ([1]; week 1, 60 mg kg^−1): 39 h | AUC0−t ([1]; week 2, 20 mg kg^−1): 663 µg·h/mL | Cmax ([1]; week 2, 20 mg kg^−1): 27 µg/mL | Tmax ([1]; week 2, 20 mg kg^−1): 4 h | t½ ([1]; week 2, 20 mg kg^−1): 31 h | AUC0−t ([1]; week 2, 40 mg kg^−1): 1781 µg·h/mL | Cmax ([1]; week 2, 40 mg kg^−1): 71 µg/mL | Tmax ([1]; week 2, 40 mg kg^−1): 4 h | t½ ([1]; week 2, 40 mg kg^−1): 28 h | AUC0−t ([1]; week 2, 60 mg kg^−1): 3056 µg·h/mL | Cmax ([1]; week 2, 60 mg kg^−1): 94 µg/mL | Tmax ([1]; week 2, 60 mg kg^−1): 4 h | t½ ([1]; week 2, 60 mg kg^−1): 35 h | Ki (heparanase): 6 nM

— paper PMC3049593 (British Journal of Cancer, 2011)
